Measured values published in US10294202B2, “Pyrrolidinones as herbicides” (FMC Corporation, priority 2013, dated 2019).

Columns and labels:
pigweed = assay: Test A pre-/postemergence herbicide test; type: in vivo, Amaranthus retroflexus; conditions: for Pigweed plant response rating: Preemergence, visual rating on 0 to 100 scale (0 no effect, 100 complete control)
Procedure, shortened: (§1)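 Both application timings used compounds in a non-phytotoxic solvent plus surfactant. Pre-emergence: soil sprayed directly after seeding into loam/sand. Post-emergence: foliage of 2–10 cm seedlings (1–2 leaves) sprayed. Injury rated ~10 days later, 0–100.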

giant foxtail = assay: Test A pre-/postemergence herbicide test; type: in vivo, Setaria faberii; conditions: for Foxtail, Giant plant response rating: Preemergence, visual rating on 0 to 100 scale (0 no effect, 100 complete control)
Procedure, shortened: as §1

wheat = assay: Test A pre-/postemergence herbicide test; type: in vivo, Triticum aestivum; conditions: for Wheat plant response rating: Preemergence, visual rating on 0 to 100 scale (0 no effect, 100 complete control)
Procedure, shortened: as §1

barnyardgrass [1] = assay: Test C flooded paddy test; type: in vivo, Echinochloa crus-galli; conditions: Flood
Procedure, shortened: (§2)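 Visual injury scored against controls after 13 to 15 days in the greenhouse, using 0 (no effect) to 100 (complete control). Test compounds went straight into paddy water held 3 cm above the soil surface on 2-leaf-stage plants, with that flood depth maintained for the whole test.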

corn = assay: Test A pre-/postemergence herbicide test; type: in vivo, Zea mays; conditions: for Corn plant response rating: Preemergence, visual rating on 0 to 100 scale (0 no effect, 100 complete control)
Procedure, shortened: as §1

rice = assay: Test C flooded paddy test; type: in vivo, Oryza sativa; conditions: Flood
Procedure, shortened: as §2

morningglory = assay: Test A pre-/postemergence herbicide test; type: in vivo, Ipomoea spp.; conditions: for Morningglory plant response rating: Preemergence, visual rating on 0 to 100 scale (0 no effect, 100 complete control)
Procedure, shortened: as §1

barnyardgrass [2] = assay: Test A pre-/postemergence herbicide test; type: in vivo, Echinochloa crus-galli; conditions: for Barnyardgrass plant response rating: Preemergence, visual rating on 0 to 100 scale (0 no effect, 100 complete control)
Procedure, shortened: as §1

crabgrass, large = assay: Test A pre-/postemergence herbicide test; type: in vivo, Digitaria sanguinalis; conditions: for Crabgrass, Large plant response rating: Preemergence, visual rating on 0 to 100 scale (0 no effect, 100 complete control)
Procedure, shortened: as §1

velvetleaf = assay: Test A pre-/postemergence herbicide test; type: in vivo, Abutilon theophrasti; conditions: for Velvetleaf plant response rating: Preemergence, visual rating on 0 to 100 scale (0 no effect, 100 complete control)
Procedure, shortened: as §1

ducksalad = assay: Test C flooded paddy test; type: in vivo, Heteranthera limosa; conditions: Flood
Procedure, shortened: as §2

sedge, umbrella = assay: Test C flooded paddy test; type: in vivo, Cyperus difformis; conditions: Flood
Procedure, shortened: as §2

[3] = Postemergence, 125 g ai/ha, 0 to 100 scale, 0 no effect, 100 complete control
[4] = Postemergence, 500 g ai/ha, 0 to 100 scale (0 no effect, 100 complete control)
[5] = preemergence, 500 g ai/ha, 0 to 100 scale
[6] = 31 g ai/ha, scale of 0 to 100 where 0 is no effect and 100 is complete control, 13 to 15 days
[7] = 62 g ai/ha, scale of 0 to 100 where 0 is no effect and 100 is complete control, 13 to 15 days
[8] = 125 g ai/ha, scale of 0 to 100 where 0 is no effect and 100 is complete control, 13 to 15 days
[9] = preemergence, 500 g ai/ha, 0 to 100 scale (0 no effect, 100 complete control)

O=C1NCC(c2ccsc2)C1C(=O)Nc1ccccc1C(F)(F)F (racemic) [Compound 28]
Plant response rating, Pigweed (pigweed; [3]): 0 | Plant response rating, Pigweed (pigweed; [4]): 0 | Pigweed plant response rating (pigweed; 125 g ai/ha): 0 | Plant response rating, Pigweed (pigweed; [5]): 0 | Plant response rating, Foxtail, Giant (giant foxtail; [3]): 0 | Plant response rating, Foxtail, Giant (giant foxtail; [4]): 0 | Foxtail, Giant plant response rating (giant foxtail; 125 g ai/ha): 0 | Plant response rating, Foxtail, Giant (giant foxtail; [5]): 20 | Plant response rating, Wheat (wheat; [3]): 0 | Plant response rating, Wheat (wheat; [4]): 0 | Wheat plant response rating (wheat; 125 g ai/ha): 0 | Plant response rating, Wheat (wheat; [5]): 0 | Plant response rating, Barnyardgrass (barnyardgrass [1]; [6]): 0 | Plant response rating, Barnyardgrass (barnyardgrass [1]; [7]): 0 | Plant response rating, Barnyardgrass (barnyardgrass [1]; [8]): 0 | Plant response rating, Barnyardgrass (barnyardgrass [1]; 250 g ai/ha, scale 0 to 100): 0 | Plant response rating, Corn (corn; [3]): 0 | Plant response rating, Corn (corn; [4]): 0 | Corn plant response rating (corn; 125 g ai/ha): 0 | Plant response rating, Corn (corn; [5]): 0 | Plant response rating, Rice (rice; [6]): 0 | Plant response rating, Rice (rice; [7]): 0 | Plant response rating, Rice (rice; [8]): 0 | Plant response rating, Rice (rice; 250 g ai/ha, scale 0 to 100): 0 | Plant response rating, Morningglory (morningglory; [3]): 0 | Plant response rating, Morningglory (morningglory; [4]): 0 | Morningglory plant response rating (morningglory; 125 g ai/ha): 0 | Plant response rating, Morningglory (morningglory; [5]): 0 | Plant response rating, Barnyardgrass (barnyardgrass [2]; [3]): 0 | Plant response rating, Barnyardgrass (barnyardgrass [2]; [4]): 0 | Barnyardgrass plant response rating (barnyardgrass [2]; 125 g ai/ha): 0 | Plant response rating, Barnyardgrass (barnyardgrass [2]; [9]): 20 | Plant response rating, Crabgrass, Large (crabgrass, large; [3]): 20 | Plant response rating, Crabgrass, Large (crabgrass, large; [4]): 40 | Crabgrass, Large plant response rating (crabgrass, large; 125 g ai/ha): 30 | Plant response rating, Crabgrass, Large (crabgrass, large; [5]): 80 | Plant response rating, Velvetleaf (velvetleaf; [4]): 0 | Velvetleaf plant response rating (velvetleaf; 125 g ai/ha): 0 | Plant response rating, Velvetleaf (velvetleaf; [5]): 0 | Plant response rating, Ducksalad (ducksalad; [6]): 20 | Plant response rating, Ducksalad (ducksalad; [7]): 30 | Plant response rating, Ducksalad (ducksalad; [8]): 40 | Plant response rating, Ducksalad (ducksalad; 250 g ai/ha, scale 0 to 100): 85 | Plant response rating, Sedge, Umbrella (sedge, umbrella; [6]): 0 | Plant response rating, Sedge, Umbrella (sedge, umbrella; [7]): 0 | Plant response rating, Sedge, Umbrella (sedge, umbrella; [8]): 0 | Plant response rating, Sedge, Umbrella (sedge, umbrella; 250 g ai/ha, scale 0 to 100): 0

O=C1NCC(c2ccc(F)c(F)c2)C1C(=O)Nc1cccc(F)c1F (racemic) [Compound 107]
Plant response rating, Pigweed (pigweed; [3]): 0 | Plant response rating, Pigweed (pigweed; [4]): 30 | Pigweed plant response rating (pigweed; 125 g ai/ha): 0 | Plant response rating, Pigweed (pigweed; [5]): 20 | Plant response rating, Foxtail, Giant (giant foxtail; [3]): 10 | Plant response rating, Foxtail, Giant (giant foxtail; [4]): 70 | Foxtail, Giant plant response rating (giant foxtail; 125 g ai/ha): 70 | Plant response rating, Foxtail, Giant (giant foxtail; [5]): 80 | Plant response rating, Wheat (wheat; [3]): 0 | Plant response rating, Wheat (wheat; [4]): 0 | Wheat plant response rating (wheat; 125 g ai/ha): 0 | Plant response rating, Wheat (wheat; [5]): 0 | Plant response rating, Barnyardgrass (barnyardgrass [1]; [8]): 0 | Plant response rating, Barnyardgrass (barnyardgrass [1]; 250 g ai/ha, scale 0 to 100): 0 | Plant response rating, Barnyardgrass (barnyardgrass [1]; 500 g ai/ha, scale 0 to 100): 0 | Plant response rating, Barnyardgrass (barnyardgrass [1]; 1000 g ai/ha, scale 0 to 100): 20 | Plant response rating, Corn (corn; [3]): 0 | Plant response rating, Corn (corn; [4]): 0 | Corn plant response rating (corn; 125 g ai/ha): 0 | Plant response rating, Corn (corn; [5]): 0 | Plant response rating, Rice (rice; [8]): 0 | Plant response rating, Rice (rice; 250 g ai/ha, scale 0 to 100): 0 | Plant response rating, Rice (rice; 500 g ai/ha, scale 0 to 100): 0 | Plant response rating, Rice (rice; 1000 g ai/ha, scale 0 to 100): 0 | Plant response rating, Morningglory (morningglory; [3]): 0 | Plant response rating, Morningglory (morningglory; [4]): 40 | Morningglory plant response rating (morningglory; 125 g ai/ha): 0 | Plant response rating, Morningglory (morningglory; [5]): 0 | Plant response rating, Barnyardgrass (barnyardgrass [2]; [3]): 50 | Plant response rating, Barnyardgrass (barnyardgrass [2]; [4]): 80 | Barnyardgrass plant response rating (barnyardgrass [2]; 125 g ai/ha): 20 | Plant response rating, Barnyardgrass (barnyardgrass [2]; [9]): 70 | Plant response rating, Crabgrass, Large (crabgrass, large; [3]): 60 | Plant response rating, Crabgrass, Large (crabgrass, large; [4]): 70 | Crabgrass, Large plant response rating (crabgrass, large; 125 g ai/ha): 80 | Plant response rating, Crabgrass, Large (crabgrass, large; [5]): 90 | Plant response rating, Velvetleaf (velvetleaf; [3]): 0 | Plant response rating, Velvetleaf (velvetleaf; [4]): 20 | Velvetleaf plant response rating (velvetleaf; 125 g ai/ha): 0 | Plant response rating, Velvetleaf (velvetleaf; [5]): 0 | Plant response rating, Ducksalad (ducksalad; [8]): 0 | Plant response rating, Ducksalad (ducksalad; 250 g ai/ha, scale 0 to 100): 30 | Plant response rating, Ducksalad (ducksalad; 500 g ai/ha, scale 0 to 100): 60 | Plant response rating, Ducksalad (ducksalad; 1000 g ai/ha, scale 0 to 100): 70 | Plant response rating, Sedge, Umbrella (sedge, umbrella; [8]): 0 | Plant response rating, Sedge, Umbrella (sedge, umbrella; 250 g ai/ha, scale 0 to 100): 0 | Plant response rating, Sedge, Umbrella (sedge, umbrella; 500 g ai/ha, scale 0 to 100): 0 | Plant response rating, Sedge, Umbrella (sedge, umbrella; 1000 g ai/ha, scale 0 to 100): 0
